Laboratory results published in patent publication US12479847B2 (DANA-FARBER CANCER INSTITUTE, INC., priority 2019, dated 2025).

How the values were obtained:
Assay in all cases: KINOMEscan (ScanMAX) kinase profiling
Format in all cases: binding
panel of 468 kinases [1] = molecular target: T1, panel of 468 kinases (Homo sapiens, UniProt O75747); details: PIK3C2G; 1 μM; read-out: % control
T1 construct: purchased KINOMEscan (ScanMAX) service
T1 sequence (O75747 1-1486): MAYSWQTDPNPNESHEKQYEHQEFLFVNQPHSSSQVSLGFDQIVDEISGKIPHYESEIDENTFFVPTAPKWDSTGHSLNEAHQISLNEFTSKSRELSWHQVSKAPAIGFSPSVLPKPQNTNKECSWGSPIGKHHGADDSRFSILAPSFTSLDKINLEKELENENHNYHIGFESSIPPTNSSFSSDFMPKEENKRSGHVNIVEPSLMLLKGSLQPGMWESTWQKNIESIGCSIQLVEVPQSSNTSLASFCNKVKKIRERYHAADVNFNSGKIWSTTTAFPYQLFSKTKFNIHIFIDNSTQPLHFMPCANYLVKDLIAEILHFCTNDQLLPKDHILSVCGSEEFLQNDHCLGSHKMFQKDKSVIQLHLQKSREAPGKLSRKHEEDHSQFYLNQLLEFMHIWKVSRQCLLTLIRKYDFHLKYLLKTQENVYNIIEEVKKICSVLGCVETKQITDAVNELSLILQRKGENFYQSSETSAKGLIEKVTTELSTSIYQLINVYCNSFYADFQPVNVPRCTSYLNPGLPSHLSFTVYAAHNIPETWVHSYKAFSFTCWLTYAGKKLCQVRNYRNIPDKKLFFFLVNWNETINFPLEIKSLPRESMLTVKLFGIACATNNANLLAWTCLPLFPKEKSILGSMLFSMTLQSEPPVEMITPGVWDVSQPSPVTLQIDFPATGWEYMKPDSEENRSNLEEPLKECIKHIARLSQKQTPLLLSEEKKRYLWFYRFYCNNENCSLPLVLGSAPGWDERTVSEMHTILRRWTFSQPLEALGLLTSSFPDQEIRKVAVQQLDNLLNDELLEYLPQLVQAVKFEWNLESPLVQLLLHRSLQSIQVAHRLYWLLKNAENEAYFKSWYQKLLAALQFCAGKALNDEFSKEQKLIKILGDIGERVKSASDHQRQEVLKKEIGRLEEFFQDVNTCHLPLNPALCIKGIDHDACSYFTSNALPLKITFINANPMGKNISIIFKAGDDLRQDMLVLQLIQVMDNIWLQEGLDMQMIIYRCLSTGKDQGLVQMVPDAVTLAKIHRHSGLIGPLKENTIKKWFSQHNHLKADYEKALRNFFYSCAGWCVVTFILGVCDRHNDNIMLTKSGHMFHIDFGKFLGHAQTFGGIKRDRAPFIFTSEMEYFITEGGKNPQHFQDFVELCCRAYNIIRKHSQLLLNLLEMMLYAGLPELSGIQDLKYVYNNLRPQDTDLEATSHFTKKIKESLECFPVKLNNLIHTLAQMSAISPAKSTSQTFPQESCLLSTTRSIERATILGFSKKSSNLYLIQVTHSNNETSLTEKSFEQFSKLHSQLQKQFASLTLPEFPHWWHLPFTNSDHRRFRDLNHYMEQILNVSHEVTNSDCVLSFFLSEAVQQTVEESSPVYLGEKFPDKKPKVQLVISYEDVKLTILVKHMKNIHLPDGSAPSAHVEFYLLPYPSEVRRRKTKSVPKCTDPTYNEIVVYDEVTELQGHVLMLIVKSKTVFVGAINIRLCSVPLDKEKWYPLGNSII

panel of 468 kinases [2] = molecular target: T2, panel of 468 kinases (Homo sapiens, UniProt P78368); details: CSNK1G2; 1 μM; read-out: % control
T2 construct: purchased KINOMEscan (ScanMAX) service

panel of 468 kinases [3] = molecular target: T3, panel of 468 kinases (Homo sapiens, UniProt Q9UQ88); details: CDC2L2; 1 μM; read-out: % control
T3 construct: purchased KINOMEscan (ScanMAX) service
T3 sequence (Q9UQ88 1-783): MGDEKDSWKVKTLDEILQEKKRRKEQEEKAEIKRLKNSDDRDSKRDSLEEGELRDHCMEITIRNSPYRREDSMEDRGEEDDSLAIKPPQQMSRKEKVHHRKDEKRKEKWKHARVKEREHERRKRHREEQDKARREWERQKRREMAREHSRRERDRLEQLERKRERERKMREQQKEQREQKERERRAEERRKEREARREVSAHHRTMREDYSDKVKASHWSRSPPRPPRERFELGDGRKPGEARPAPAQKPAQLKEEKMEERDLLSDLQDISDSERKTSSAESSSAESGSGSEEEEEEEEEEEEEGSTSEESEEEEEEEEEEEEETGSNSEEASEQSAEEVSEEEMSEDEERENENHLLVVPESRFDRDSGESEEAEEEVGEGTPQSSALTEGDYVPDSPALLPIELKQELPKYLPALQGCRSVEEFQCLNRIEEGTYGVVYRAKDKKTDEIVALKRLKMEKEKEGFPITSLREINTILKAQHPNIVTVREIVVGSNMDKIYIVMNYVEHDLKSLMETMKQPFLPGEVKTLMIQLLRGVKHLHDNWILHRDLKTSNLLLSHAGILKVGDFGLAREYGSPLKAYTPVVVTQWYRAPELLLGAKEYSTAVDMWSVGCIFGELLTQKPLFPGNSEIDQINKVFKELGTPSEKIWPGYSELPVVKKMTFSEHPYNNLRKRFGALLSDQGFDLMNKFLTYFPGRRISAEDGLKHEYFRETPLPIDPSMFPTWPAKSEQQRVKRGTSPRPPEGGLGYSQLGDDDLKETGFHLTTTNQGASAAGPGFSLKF

panel of 468 kinases [4] = molecular target: T4, panel of 468 kinases (Homo sapiens, UniProt P42345); details: MTOR; 1 μM; read-out: % control
T4 construct: purchased KINOMEscan (ScanMAX) service

panel of 468 kinases [5] = molecular target: T5, panel of 468 kinases (Homo sapiens, UniProt P04049); details: RAF1; 1 μM; read-out: % control
T5 construct: purchased KINOMEscan (ScanMAX) service

panel of 468 kinases [6] = molecular target: T6, panel of 468 kinases (Homo sapiens, UniProt Q00532); details: CDKL1; 1 μM; read-out: % control
T6 construct: purchased KINOMEscan (ScanMAX) service

panel of 468 kinases [7] = molecular target: T7, panel of 468 kinases (Homo sapiens, UniProt P42336, M1043I); details: PIK3CA(M1043I); 1 μM; read-out: % control
T7 construct: purchased KINOMEscan (ScanMAX) service
T7 sequence (P42336 whole entry M1043I): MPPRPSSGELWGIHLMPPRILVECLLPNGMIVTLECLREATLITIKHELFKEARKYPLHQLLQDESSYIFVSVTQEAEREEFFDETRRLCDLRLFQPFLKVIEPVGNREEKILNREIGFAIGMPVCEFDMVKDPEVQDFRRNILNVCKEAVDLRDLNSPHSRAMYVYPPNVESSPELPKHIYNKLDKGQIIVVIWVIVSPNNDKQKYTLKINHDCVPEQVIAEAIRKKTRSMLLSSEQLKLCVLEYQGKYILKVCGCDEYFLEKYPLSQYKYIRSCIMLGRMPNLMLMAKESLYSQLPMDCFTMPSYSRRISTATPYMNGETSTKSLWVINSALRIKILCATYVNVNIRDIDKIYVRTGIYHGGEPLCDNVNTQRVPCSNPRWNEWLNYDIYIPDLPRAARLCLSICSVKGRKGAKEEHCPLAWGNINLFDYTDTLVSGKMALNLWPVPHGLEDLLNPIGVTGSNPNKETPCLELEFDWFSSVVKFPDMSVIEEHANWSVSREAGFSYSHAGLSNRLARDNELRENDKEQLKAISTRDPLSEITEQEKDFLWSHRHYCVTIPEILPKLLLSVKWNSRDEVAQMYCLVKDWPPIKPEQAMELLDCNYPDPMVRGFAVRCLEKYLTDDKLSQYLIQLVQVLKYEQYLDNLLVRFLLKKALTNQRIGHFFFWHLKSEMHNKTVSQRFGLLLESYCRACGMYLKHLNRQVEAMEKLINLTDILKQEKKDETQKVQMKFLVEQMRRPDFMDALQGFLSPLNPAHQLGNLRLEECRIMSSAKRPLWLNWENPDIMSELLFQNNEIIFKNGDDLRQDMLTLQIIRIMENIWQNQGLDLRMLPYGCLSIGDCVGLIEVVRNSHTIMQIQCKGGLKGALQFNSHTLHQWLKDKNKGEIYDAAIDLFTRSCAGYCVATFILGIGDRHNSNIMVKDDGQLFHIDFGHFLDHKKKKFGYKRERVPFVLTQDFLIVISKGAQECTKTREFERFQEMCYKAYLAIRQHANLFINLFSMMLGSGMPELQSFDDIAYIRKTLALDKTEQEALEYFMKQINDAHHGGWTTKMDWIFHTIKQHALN

T6 sequence (Q00532 whole entry): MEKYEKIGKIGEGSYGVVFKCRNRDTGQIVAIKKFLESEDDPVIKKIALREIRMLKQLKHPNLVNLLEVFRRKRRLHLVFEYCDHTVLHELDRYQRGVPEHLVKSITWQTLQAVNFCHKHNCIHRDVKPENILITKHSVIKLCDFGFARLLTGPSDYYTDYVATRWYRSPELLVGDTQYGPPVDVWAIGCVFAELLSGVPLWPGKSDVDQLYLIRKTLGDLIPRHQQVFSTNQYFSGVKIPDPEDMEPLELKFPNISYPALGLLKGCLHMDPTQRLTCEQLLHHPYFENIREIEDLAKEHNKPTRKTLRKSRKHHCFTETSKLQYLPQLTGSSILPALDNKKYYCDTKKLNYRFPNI
T5 sequence (P04049 whole entry): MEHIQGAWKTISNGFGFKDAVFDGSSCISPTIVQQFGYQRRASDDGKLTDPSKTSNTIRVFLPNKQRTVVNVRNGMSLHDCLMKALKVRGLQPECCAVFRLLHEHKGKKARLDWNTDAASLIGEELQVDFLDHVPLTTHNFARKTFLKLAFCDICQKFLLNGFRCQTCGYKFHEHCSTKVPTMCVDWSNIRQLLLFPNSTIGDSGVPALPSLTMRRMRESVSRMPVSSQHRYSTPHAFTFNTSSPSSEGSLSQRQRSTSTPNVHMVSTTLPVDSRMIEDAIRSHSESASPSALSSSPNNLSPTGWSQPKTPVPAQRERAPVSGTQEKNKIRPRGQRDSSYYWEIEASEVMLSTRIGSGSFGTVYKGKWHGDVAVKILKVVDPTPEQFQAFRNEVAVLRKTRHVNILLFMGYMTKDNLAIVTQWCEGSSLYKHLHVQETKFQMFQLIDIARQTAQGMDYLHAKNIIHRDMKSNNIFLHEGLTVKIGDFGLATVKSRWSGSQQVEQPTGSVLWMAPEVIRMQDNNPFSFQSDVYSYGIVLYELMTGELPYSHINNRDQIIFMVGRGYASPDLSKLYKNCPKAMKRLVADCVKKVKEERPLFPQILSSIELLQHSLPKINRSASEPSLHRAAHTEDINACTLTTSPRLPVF
T2 sequence (P78368 whole entry): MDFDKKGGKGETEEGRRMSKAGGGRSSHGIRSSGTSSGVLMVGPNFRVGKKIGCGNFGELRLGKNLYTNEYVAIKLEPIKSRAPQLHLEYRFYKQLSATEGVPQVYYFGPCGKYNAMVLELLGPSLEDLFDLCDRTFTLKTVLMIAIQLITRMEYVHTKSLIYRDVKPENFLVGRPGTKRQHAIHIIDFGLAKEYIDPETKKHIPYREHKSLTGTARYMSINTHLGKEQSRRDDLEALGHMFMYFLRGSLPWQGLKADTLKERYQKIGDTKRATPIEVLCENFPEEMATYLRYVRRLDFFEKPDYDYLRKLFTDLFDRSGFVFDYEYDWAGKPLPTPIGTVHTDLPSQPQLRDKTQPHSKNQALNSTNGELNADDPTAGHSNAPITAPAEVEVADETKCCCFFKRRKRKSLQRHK

Structure (SMILES)	remaining binding at 1 µM (panel of 468 kinases [1]) [%]	remaining binding at 1 µM (panel of 468 kinases [2]) [%]	remaining binding at 1 µM (panel of 468 kinases [3]) [%]	remaining binding at 1 µM (panel of 468 kinases [4]) [%]	remaining binding at 1 µM (panel of 468 kinases [5]) [%]	remaining binding at 1 µM (panel of 468 kinases [6]) [%]	remaining binding at 1 µM (panel of 468 kinases [7]) [%]
CNc1nc(Nc2ccc(C(=O)N3CCC(N4CCOCC4)CC3)c3c2OCO3)nc2[nH]cc(Cl)c12 [Compound 75, (7-((5-chloro-4-(methylamino)-7H-pyrrolo[2,3-d]pyrimidin-2-yl)amino)benzo[d][1,3]dioxol-4-yl)(4-morpholinopiperidin-1-yl)methanone]	100	2.9	100	79	100	95	99
CNc1nc(Nc2ccc(S(=O)(=O)N3CCC(N4CCOCC4)CC3)cc2OC)nc2[nH]cc(Cl)c12 [Compound 12, 5-chloro-N2-(2-methoxy-4-((4-morpholinopiperidin-1-yl)sulfonyl)phenyl)-N4-methyl-7H-pyrrolo[2,3-d]pyrimidine-2,4-diamine]	100	63	100	67	100	85	98
CNc1nc(Nc2ccc(P3(=O)CCN(C4CCOCC4)CC3)cc2OC)nc2[nH]cc(Cl)c12 [Compound 77, 4-(4-((5-chloro-4-(methylamino)-7H-pyrrolo[2,3-d]pyrimidin-2-yl)amino)-3-methoxyphenyl)-1-(tetrahydro-2H-pyran-4-yl)-1,4-azaphosphinane 4-oxide]	93	96	100	84	100	87	96
